Experimental data: patent US20170281611A1, “QUINOLINES AND THEIR USE FOR TREATING ENDOPLASMIC RETICULUM STRESS-CAUSED DISEASES” (EIGER BIOPHARMACEUTICALS, INC., priority 2014, published 2017)
Read-outs that look alike come from different tables or passages of the source.

Key:
[1] = system: MCF10A Cells; test: In vitro viability, monolayers (2D) and spheroids (3D), normal breast tissue cells; type: cell-based; conditions: Homo sapiens, MCF-10A
Description: (§1) The anticancer activity of a test compound was determined in vitro using mammalian tumor cells that grew as monolayers and spheroids. Spheroids represent the three-dimensional growth and organization of solid tumors, and thus are an intermediate model between monolayers of cells in culture and tumors in vivo. The cancer cell line tested was a breast cancer cell line, BT474. Normal breast tissue cells (MCF10A) were used as a control. The viability/proliferation of the cells were measured using […]-GLO® reagent.

[2] = Pharmacokinetics in Beagle dogs (Table 5); type: in vivo; conditions: dog; for MRT inf: read-out: MRT0-∞
Description: For pharmacokinetic evaluation, 3 male Beagle dogs were intravenously (IV) dosed (1 mg/kg body weight) and 3 male Beagle dogs were orally (PO) dosed (10 mg/kg body weight) with a test compound. Blood (approximately 1.0 mL) was collected via femoral vein into tubes containing K3EDTA anticoagulant at 0, 0.017, 0.083, 0.5, 1, 2, 4, 6, 8, and 24 hours post-dosing. Plasma samples were analyzed by LC-MS/MS. The analytical results were confirmed using quality control samples for intra-assay variation. The accuracy of >66% of the quality control samples was between 80-120% of the known value(s). A standard set of pharmacokinetic parameters were generated from concentration data including Area Under the Curve (AUC0-t and AUC0-inf), elimination half-lives, clearances, volume of distribution and bioavailabilities (based on AUC0-t), maximum plasma concentration (C0; Cmax), and time to reach maximum plasma concentration (Tmax).

[3] = system: CSM14.1 cells; test: ER stress cell survival assay (thapsigargin, […]-GLO); type: cell-based; conditions: dose-response
Description: CSM14.1 cells were maintained in Complete Medium at 32° C.; wherein the Complete Medium contained Dulbecco's modified eagle medium (DMEM) with 10% fetal bovine serum (FSB), 1% L-glutamine, 100 IU/mL penicillin, and 100 μg/mL streptomycin. The cells were recovered from cultures by trypsinization and then seeded in 384 well plates (Greiner #781098) at a concentration of 1,000 cells/well in 20 μL of DMEM Assay Medium, wherein the DMEM Assay Medium contained 2% FBS, 100 IU/mL penicillin, and 100 μg/mL streptomycin. Seeding was performed using a MultiDrop Combi reagent broadcaster. The plates were incubated overnight at 32° C.
A test compound was prepared by 2-fold serial dilution in 100% DMSO using a BIOMEK® 2000 liquid handler (Beckman Coulter). A dose-response curve containing 10 concentrations of the test compound was obtained. Using a BIOMEK® FX liquid handler (Beckman Coulter), 2.5 μL of the test compound was transferred from the 100% DMSO serial dilution plate to an intermediate plate containing 47.5 μL of DMEM Assay Medium containing 2% FBS, 100 IU/mL penicillin, and 100 μg/mL streptomycin and mixed. To reduce or eliminate the interference from the compound's precipitation, 6 μL of the diluted compound was immediately transferred to the assay plate to achieve a high compound concentration of 100 μM in 99% DMEM Assay Medium and 1% DMSO. After the assay plates were incubated for 2 hrs, 4 μL of 112.5 μM thapsigargin (TG) (DMSO stock diluted into Assay TC Medium) was dispensed into each testing well with a MultiDrop Combi reagent broadcaster for a final concentration of about 15 μM TG. The tissue culture media (4 μL) containing vehicle only was transferred manually to each control cell using a 16 channel electronic pipette. […] High luminescence indicates cell survival.
Alternatively, a test compound was tested at a single compound concentration (e.g., 2 μM) to determine the effect of the compound on cell survival in comparison with vehicle.

[4] = system: BT474 Cells; test: In vitro anticancer activity, monolayers (2D) and spheroids (3D), BT474; type: cell-based; conditions: Homo sapiens
Description: as §1

[5] = system: human foreskin fibroblast (HFF) cells; test: Toxicity in human foreskin fibroblast cells; type: cell-based; conditions: 100 μM
[6] = Pharmacokinetics in Sprague Dawley rats (Table 4); type: in vivo; conditions: rat; for MRT inf: read-out: MRT0-∞
From the text: Compound D1 was formulated in 0.3% DMA/1% SOLUTOL®/98.7% saline. Compound D6 was formulated in 0.5% DMA/1% SOLUTOL®/94.5% 0.01N HCl in saline/4% NaOH (pH 4-5).

[7] = system: SERCA; test: Activation of SERCA, increase in Vmax (SR type not given); type: biochemical
[8] = system: 6-OHDA lesioned Wistar rats; test: Rat unilateral 6-OHDA model of Parkinson's disease, stepping test; type: in vivo; conditions: D11, 10 mg/kg IP once daily for 15 days, t test
Description: Fifty adult male Wistar rats were used. The rats from different groups (G1 to G5) were randomized. At the beginning of the study, the rats were about 5 weeks old and naive to previous administration of any drug.
A stereotaxic injection of 6-OHDA (G2 to G5) or saline (G1: sham group) was performed to induce a unilateral dopaminergic lesion on day 0 (D0). Surgery was performed on D0 under ketamine (50 mg/kg) and xylazine (10 mg/kg). The rats of G2 to G5 received a unilateral injection of 6-OHDA (6 μL) in the left substantia nigra pars compacta. Jouve et al., J. Neurosci. 2010, 30, 9919-9928. The rats of the G1 sham group were injected with saline. During surgery, local analgesia was achieved using subcutaneous injections of lidocaine. At the end of surgery, the rats were treated with buprenorphine (0.05 mg/kg, S.C.).
The stepping test was performed after IT test, both before the 6-OHDA lesion induction on D0 and on D11. Around D−6, the stepping test was performed eight consecutive times for the right paw of each animal to obtain baseline values. On D11, the stepping test was performed one hour after the rats were dosed. Each rat was hold by an experimenter and only one of the two forelimbs was left free to move above a plane surface and the other was held with the paw touching the table. The rats were then to be moved slowly forward by the experimenter. The number of adjusting steps was countered for the right paw. Olsson et al., J. Neurosci. 1995, 15, 3863-3875.
L-DOPA and benserazide (a peripheric DOPA decarboxylase inhibitor) were prepared together as a single solution containing 0.9% NaCl and 0.1% ascorbic acid.
All the dosings were given via the IP route, once daily, Sunday excluded.

[9] = target: T1, SERCA, cardiac SR; test: Activation of SERCA, NADH-linked enzyme-coupled ATPase assay, cardiac SR; type: biochemical; conditions: read-out: CSR EC50
T1 construct: 2 mg or 7 mg of SR vesicles (optimized for skeletal or cardiac SR, respectively); from tissue; host or cells: cardiac sarcoplasmic reticulum vesicles
T1 sequence (P16615 1-997 isoform P16615-2): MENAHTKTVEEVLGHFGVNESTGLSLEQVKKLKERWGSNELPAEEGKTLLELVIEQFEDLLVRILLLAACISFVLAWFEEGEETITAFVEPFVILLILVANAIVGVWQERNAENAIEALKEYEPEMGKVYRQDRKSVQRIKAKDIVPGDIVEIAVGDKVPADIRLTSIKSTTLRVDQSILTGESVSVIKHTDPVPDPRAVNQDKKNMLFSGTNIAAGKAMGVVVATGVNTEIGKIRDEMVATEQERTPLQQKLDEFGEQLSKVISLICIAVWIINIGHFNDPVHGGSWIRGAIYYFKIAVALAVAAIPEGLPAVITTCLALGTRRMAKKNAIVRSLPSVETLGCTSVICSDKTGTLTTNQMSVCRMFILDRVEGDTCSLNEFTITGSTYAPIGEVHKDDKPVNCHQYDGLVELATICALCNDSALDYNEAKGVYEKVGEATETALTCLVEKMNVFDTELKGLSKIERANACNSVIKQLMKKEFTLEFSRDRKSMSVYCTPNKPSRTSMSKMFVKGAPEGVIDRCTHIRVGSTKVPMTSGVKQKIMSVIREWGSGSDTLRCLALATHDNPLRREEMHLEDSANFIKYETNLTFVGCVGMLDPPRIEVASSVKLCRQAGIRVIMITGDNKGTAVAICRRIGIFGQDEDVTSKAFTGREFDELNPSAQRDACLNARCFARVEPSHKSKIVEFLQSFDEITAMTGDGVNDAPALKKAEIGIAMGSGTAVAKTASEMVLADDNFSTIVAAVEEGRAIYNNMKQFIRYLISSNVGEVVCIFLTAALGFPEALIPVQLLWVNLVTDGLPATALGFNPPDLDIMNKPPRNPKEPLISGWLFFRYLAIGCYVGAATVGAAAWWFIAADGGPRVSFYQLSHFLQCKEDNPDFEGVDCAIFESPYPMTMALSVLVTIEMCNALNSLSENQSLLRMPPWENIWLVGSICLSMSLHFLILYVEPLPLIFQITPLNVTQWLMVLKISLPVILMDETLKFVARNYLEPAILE
Description: Test compounds were characterized over a range of concentrations using an NADH-linked, enzyme-coupled ATPase assay. Each well contained 2 mg or 7 mg of SR vesicles (optimized for skeletal or cardiac SR, respectively), 50 mM MOPS (pH 7.0), 100 mM KCl, 5 mM MgCl2, 1 mM EGTA, 0.2 mM NADH, 1 mM phosphoenol pyruvate, 5 IU pyruvate kinase, 5 IU lactate dehydrogenase, and 3.5 mg/mL A23187 (a calcium ionophore), and CaCl2 was added to set free [Ca2+] to the specific values. The assay was started upon addition of ATP at a final concentration of 5 mM, and read in a SpectraMax Plus microplate spectrophotometer and the ATPase activities were fitted using the Hill function.

[10] = male, Beagle, plasma, IV (1 mg/kg)
[11] = male, Beagle, plasma, PO (10 mg/kg)
[12] = Sprague Dawley, in vivo, IV (2 mg/kg)
[13] = Sprague Dawley, in vivo, PO (10 mg/kg)

O=C(c1ccc(N2CCCC2)c([N+](=O)[O-])c1)N1CCN(c2ccnc3cc(Cl)ccc23)CC1 [Compound D6, (4-(7-Chloroquinolin-4-yl)piperazin-1-yl)(3-nitro-4-(pyrrolidin-1-yl)phenyl)methanone]
IC50 ([1]; monolayers (2D), read-out: IC50 (2D)): > 50 µM
IC50 ([1]; spheroids (3D), read-out: IC50 (3D)): > 50 µM
F ([2]; PO (10 mg/kg) vs IV (1 mg/kg), based on AUC0-t): 82%
AUC(0-inf) [2, 10]: 14300 ± 2220 ng·h/mL
AUC(0-t) [2, 10]: 13900 ± 2100 ng·h/mL
Cmax [2, 10]: 12.7 ± 2.4 µM
Tmax [2, 10]: 1.2 min
clearance [2, 10]: 1.17 mL/min/kg
half-life [2, 10]: 288 ± 24 min
MRT inf [2, 10]: 5.6 ± 0.4 h
Vd ([2]; male, Beagle, plasma, IV (1 mg/kg), read-out: Vz): 0.49 ± 0.04 L/kg
AUC(0-inf) [2, 11]: 114000 ± 15500 ng·h/mL
AUC(0-t) [2, 11]: 110000 ± 15500 ng·h/mL
Cmax [2, 11]: 26.5 ± 1.9 µM
Tmax [2, 11]: 49.8 ± 17.4 min
half-life [2, 11]: 288 ± 36 min
MRT inf [2, 11]: 7 ± 0.3 h
EC50 [3]: < 20 µM
IC50 ([4]; BT-474, monolayers (2D), read-out: IC50 (2D)): 5 µM
IC50 ([4]; BT-474, spheroids (3D), read-out: IC50 (3D)): 8 µM
toxicity in HFF cells [5]: no toxicity
AUC(0-inf) [6, 12]: 8640 ± 650 ng·h/mL
AUC(0-t) [6, 12]: 8600 ± 659 ng·h/mL
Cmax [6, 12]: 39.7 ± 1.06 µM
Tmax [6, 12]: 1.2 min
clearance [6, 12]: 3.83 mL/min/kg
half-life [6, 12]: 58.8 ± 7.8 min
MRT inf [6, 12]: 0.98 ± 0.09 h
Vd ([6]; Sprague Dawley, in vivo, IV (2 mg/kg), read-out: Vz): 0.33 ± 0.03 L/kg
AUC(0-inf) [6, 13]: 21200 ± 1940 ng·h/mL
AUC(0-t) [6, 13]: 19900 ± 1510 ng·h/mL
Cmax [6, 13]: 13 ± 3.56 µM
Tmax [6, 13]: 25.2 ± 8.4 min
half-life [6, 13]: 107 ± 23.4 min
MRT inf [6, 13]: 2.96 ± 0.66 h
F ([6]; PO (10 mg/kg) vs IV (2 mg/kg)): 44%

CCNc1ccc(C(=O)Nc2cccc3ccc(C)nc23)cc1 [Compound J1, 4-(Ethylamino)-N-(2-methylquinolin-8-yl)benzamide]
Increase in Vmax at 10 μM [7]: A′ (A′ represents an increase greater than 50%)
EC50 [3]: < 20 µM

Cc1ccc2cccc(NC(=O)c3ccc(O)cc3)c2n1 [Compound J2, 4-Hydroxy-N-(2-methylquinolin-8-yl)benzamide]
Increase in Vmax at 10 μM [7]: A′ (A′ represents an increase greater than 50%)
EC50 [3]: < 20 µM

Cc1ccc(C(=O)N2CCN(c3ccnc4cc(Cl)ccc34)CC2)cc1 [Compound D4, (4-(7-Chloroquinolin-4-yl)piperazin-1-yl)(p-tolyl)methanone]
EC50 [3]: 20 to 100 µM

Cc1ccc2cccc(NC(=O)c3ccc(Br)s3)c2n1 [Compound B1, 5-Bromo-N-(2-methylquinolin-8-yl)thiophene-2-carboxamide]
number of adjusting steps [8]: statistically significant increase

Cc1ccc2cccc(NC(=O)c3ccc(C(C)(C)C)cc3)c2n1 [Compound A4, 4-(tert-Butyl)-N-(2-methylquinolin-8-yl)benzamide]
EC50 [9]: < 20 µM

O=C(C1CC1)N1CCN(c2ccnc3cc(Cl)ccc23)CC1 [Compound D7]
EC50 [3]: < 20 µM
